Results on 20 molecules are retold here after patent publication US6340670B1, “Acetal benzylmaltosides as inhibitors of smooth muscle cell proliferation” (American Home Products Corporation, priority 1998, dated 2002).

The assay deals with Porcine Smooth Muscle Cell. Nature of the assay: Effects of Compounds on Cell Proliferation Using 3H Thymidine Incorporation. The class given is cell-based. The note with it: for IC50: serum/growth factor stimulated cells, 24-36 h incubation, read-out: Porcine Smooth Muscle Cell Antiproliferation IC50; for Porcine Smooth Muscle Cell Antiproliferation, percent inhibition: @ 50 μM, control (100%) = maximally stimulated cells. Here is the method:
Effects of Compounds on Cell Proliferation Using ^3H Thymidine Incorporation
Human and porcine smooth muscle cells were tested in early passage (generally passage 3-7) at sub-confluent conditions. Cultures were grown in 16 mm (24 well) multi-well culture dishes in medium 199 supplemented with 10% fetal bovine serum and 2% antibiotic/antimycotic. At sub-confluence, the cells were placed in a defined serum free medium (AIM-V; Gibco) for 24-48 h prior to initiating the experimental protocol.
Compounds were added to each well at 50 fold dilution (20 μL/well) and the plates were incubated for 24-36 h at 37° C. in 5% CO2. Compounds were initially dissolved in 50% ethanol and serially diluted into media. Compounds were routinely evaluated at concentrations from 1 to 100 μM. As a control, grade II porcine intestinal mucosal heparin (sodium salt) was routinely evaluated in all cell preparations at concentrations from 0.1 to 100 μg/mL.
At the completion of the test procedure, plates were placed on ice, washed three times with ice cold phosphate buffered saline (PBS) and incubated in ice cold 10% trichloroacetic acid (TCA) got 30 min to remove acid soluble proteins. Solution was transferred to scintillation vials containing 0.4 N HCl (500 μL/vial to neutralize NaOH) and each well was rinsed two times with water (500 μL) for a total volume of 2 mL/vial.
Data was obtained, in triplicate, for both control and experimental samples. Control (100%) data was obtained from maximally stimulated cells, as the result of growth factor or serum stimulation. Experimental data was obtained from cells maximally stimulated with growth factor or serum and treated with compound. Data are expressed as an IC50 or percent inhibition in Table I below.
In general terms: Dividing cells build labelled thymidine or BrdU into new DNA.

In the case of `CC(NC(=O)OCC1c2ccccc2-c2ccccc21)C(=O)Nc1cc(COC2OC(CO)C(OC3OC4COC(c5ccccc5)OC4C(O)C3O)C(O)C2O)ccc1Cl` [Example 75, (1-{5-[(4′,6′-O-Benzylidene-β-D-maltosyl)-oxy-methyl]-2-chloro-phenyl-carbamoyl}ethyl)-carbamic acid 9H-fluoren-9ylmethyl ester], the IC50 came out at 4690 nM.

For `O=C(Nc1cc(COC2OC(CO)C(OC3OC4COC(c5ccccc5)OC4C(O)C3O)C(O)C2O)ccc1Cl)c1cccnc1` [Example 61, (R)-N-[2-Chloro-5-[[[4-O-[4′,6′-O-(phenylmethylene)-α-D-glucopyranosyl]-β-D-glucopyranosyl]oxy]methyl]phenyl]-3-pyridinecarboxamide], the IC50 was determined as 13700 nM.

On to `CC(=O)Nc1cc(CO[C@@H]2O[C@H](CO)[C@@H](O[C@H]3O[C@@H]4COC(c5ccccc5)O[C@H]4[C@H](O)[C@H]3O)[C@H](O)[C@H]2O)ccc1Cl` (stereo partly drawn) [Example 24, N-{5-[(4′,6′-O-Benzylidene-β-D-maltosyloxy)-methyl]-2-chloro-phenyl}-acetamide], for which the IC50 was found to be 6600 nM.

`CC(=O)Nc1cc(COC2OC(CO)C(OC3OC4COC(c5ccc([N+](=O)[O-])cc5)OC4C(O)C3O)C(O)C2O)ccc1Cl` [Example 10, N-(2-Chloro-5-{[4′,6′-O-(4-nitro)-benzylidene-β-D-maltosyl]-oxy-methyl}-phenyl)-acetamide]: the IC50 was determined as 19200 nM.

`CC(=O)Nc1cc(COC2OC(COC(=O)c3ccccc3)C(OC3OC4COC(C)OC4C(OC(C)=O)C3OC(C)=O)C(OC(C)=O)C2OC(C)=O)ccc1Cl` [Example 3, (R)-N-[2-Chloro-5-[[[2,3-di-O-acetyl-6-O-benzoyl-4-O-(2,3-di-O-acetyl-4,6-O-ethylidene-α-D-glucopyranosyl)-β-D-glucopyranosyl]oxy]methyl]phenyl]acetamide]: the IC50 is 2920 nM.

For the molecule “Benzoic acid 6-(3-acetylamino-4-chloro-benzoyloxy)-3-(7,8-dihydroxy-2-pyridin-4-yl-hexahydro-pyrano[3,2-d][1,3]dioxin-6-yloxy)-4,5-dihydroxy-tetrahydro-pyran-2-ylmethyl ester [Example 23]”, the IC50 came out at 3 nM.

On to `CC(=O)N(C)c1cc(CO[C@@H]2O[C@H](CO)[C@@H](O[C@H]3O[C@@H]4COC(c5ccccc5)O[C@H]4[C@H](O)[C@H]3O)[C@H](O)[C@H]2O)ccc1Cl` (stereo partly drawn) [Example 78, N-{5-[(4′,6′-O-Benzylidene-β-D-maltosyl)-oxymethyl]-2-chloro-phenyl}-N-methyl-acetamide], for which the “Porcine Smooth Muscle Cell Antiproliferation, percent inhibition” value worked out at 8% @ 50.

Take `Nc1cc(COC2OC(COC(=O)c3ccccc3)C(OC3OC4COC(c5ccccc5)OC4C(O)C3O)C(O)C2O)ccc1Cl` [Example 67, 5-(6-O-Benzoyl-4′,6′-O-benzylidene-β-D-maltosyl)-oxy-methyl-2-chloro-phenylamine]: the IC50 was 1290 nM.

In the case of `CC(=O)Nc1cc(COC2OC(COC(=O)c3ccccc3)C(OC3OC4COC(C)OC4C(O)C3O)C(O)C2O)ccc1Cl` [Example 2, (R)-N-[5-[[[6-O-Benzoyl-4-O-(4,6-O-ethylidene-α-D-glucopyranosyl)-β-D-glucopyranosyl]oxy]methyl]-2-chlorophenyl]acetamide], the IC50 amounted to 103 nM.

Turning to `CC(=O)Nc1cc(CO[C@@H]2O[C@H](COC(=O)c3ccccc3)[C@@H](O[C@H]3O[C@@H]4COC(c5ccccc5)O[C@H]4[C@H](O)[C@H]3O)[C@H](O)[C@H]2O)ccc1Cl` (stereo partly drawn) [Example 26, N-{5-[(6-O-Benzoyl-4′,6′-O-benzylidene-β-D-maltosyl-oxy)-methyl]-2-chloro-phenyl}-acetamide], the IC50 is 10 to 30 nM.

Consider `CCC1OCC2OC(OC3C(CO)OC(OCc4ccc(Cl)c(NC(C)=O)c4)C(O)C3O)C(O)C(O)C2O1` [Example 4, N-{2-Chloro-5-[(4′,6′-O-propylidene-β-D-maltosyl)-oxy-methyl]-pheny}-acetamide], for which the “Porcine Smooth Muscle Cell Antiproliferation, percent inhibition” value is listed as 16% @ 50.

With `O=C(OCC1OC(OCc2ccc(Cl)cc2)C(O)C(O)C1OC1OC2COC(c3ccccc3)OC2C(O)C1O)c1ccccc1` [Example 69, Benzoic acid 1-O-(4-chloro)-benzyl-4′,6′-O-benzylidene-6-deoxy-β-D-malto-6-yl ester], the IC50 amounted to 1530 nM.

`O=C(Nc1cc(COC2OC(CO)C(OC3OC4COC(c5ccccc5)OC4C(O)C3O)C(O)C2O)ccc1Cl)c1ccc(C(=O)c2ccccc2)cc1` [Example 70, 4-Benzoyl-N-{5-[(4′,6′-O-benzylidene-β-D-maltosyl)-oxy-methyl]-2-chloro-phenyl}-benzamide]: the IC50 is 9940 nM.

For `O=C(Nc1cc(COC2OC(COC(=O)c3cccc(I)c3)C(OC3OC4COC(c5ccccc5)OC4C(O)C3O)C(O)C2O)ccc1Cl)c1ccc(C(=O)c2ccccc2)cc1` [Example 73, 4-Benzoyl-N-{5-[(4′,6′-O-benzylidene-6-O-(3-iodo-benzoyl)-β-D-maltosyl)-oxy-methyl]-2-chloro-phenyl}-benzamide], the IC50 is 132 nM.

With `CC(=O)Nc1cc(COC2OC(COC(=O)c3ccc(Cl)c([N+](=O)[O-])c3)C(OC3OC4COC(c5ccccc5)OC4C(O)C3O)C(O)C2O)ccc1Cl` [Example 38, (R)-N-[2-Chloro-5-[[[6-O-(4-chloro-3-nitrobenzoyl)-4-O-[4,6O-(phenylmethylene)-α-D-glucopyranosyl]-β-D-glucopyranosyl]oxy]methyl]phenyl]acetamide], the IC50 turned out to be 187 nM.

Take `O=C(OCC1OC(SCc2ccc(Cl)c([N+](=O)[O-])c2)C(O)C(O)C1OC1OC2COC(c3ccccc3)OC2C(O)C1O)c1ccccc1` [Example 87, (4-Chloro-3-nitro-benzyl) 6-O-benzoyl-4′,6′-O-benzoyl-4′,6′-O-benzylidene-1-thio-β-D-maltoside]: the IC50 was determined as 31 nM.

For the molecule `CC(=O)Nc1cc(COC2OC(COC(=O)Cc3ccccc3)C(OC3OC4COC(c5ccccc5)OC4C(OC(C)=O)C3OC(C)=O)C(OC(C)=O)C2OC(C)=O)ccc1Cl` [Example 47, (R)-N-[2-Chloro-5-[[[2,3-di-O-acetyl-4-O-[2,3-di-O-acetyl-4,6-O-(phenylmethylene)-α-D-glucopyranosyl]-6-O-(phenylacetyl)-β-D-glucopyranosyl]-oxy]methyl]phenyl]acetamide], the IC50 worked out at 78 nM.

With `COC(=O)Nc1cc(COC2OC(COC(=O)c3ccccc3)C(OC3OC4COC(c5ccccc5)OC4C(O)C3O)C(O)C2O)ccc1Cl` [Example 81, N-{5-[(6-O-Benzoyl-4′,6′-O-benzylidene-β-D-maltosyl)-oxy-methyl]-2-chloro-phenyl}-carbamic acid methyl ester], the IC50 was 14 nM.

For `CC(=O)Nc1cc(COC2OC(CO)C(OC3OC4COC(CCC#N)OC4C(O)C3O)C(O)C2O)ccc1Cl` [Example 18, N-{2-Chloro-5[-(4′,6′-O-((1R)-3-cyano-propylidene)-β-D-maltosyloxy)-methyl]-phenyl}-acetamide], the “Porcine Smooth Muscle Cell Antiproliferation, percent inhibition” value is given as 43% @ 50.

Take `O=C(Nc1cc(CO[C@@H]2O[C@H](COC(=O)c3ccccc3I)[C@@H](O[C@H]3O[C@@H]4COC(c5ccccc5)O[C@H]4[C@H](O)[C@H]3O)[C@H](O)[C@H]2O)ccc1Cl)c1ccc(C(=O)c2ccccc2)cc1` (stereo partly drawn) [Example 72, 4-Benzoyl-N-{5-[(4′,6′-O-benzylidene-6-O-(2-iodo)-benzoyl-β-D-maltosyl)-oxy-methyl]-2-chloro-phenyl}-benzamide]: the IC50 came out at 16 nM.
